Experiments:
LL2 tumor = assay: Murine syngeneic LL2 lung tumor model; format: in vivo; details: LL2 tumor-bearing mice
Protocol: Briefly, LL2 cells that had been transfected with the luciferase reporter gene were inoculated subcutaneously into C57BL/6 mice.
LL2 cells (5×10^5) expressing a luciferase reporter were inoculated subcutaneously into the backs of C57BL/6 mice, as a lung cancer animal model. After 7 days, saline control or copolypeptides were injected intratumorally to start the beginning of the timeline (day zero). […] Tumor growth, body weight, and survival were closely monitored. Tumor volume was calculated using the following equation: (length of tumor)×(width of tumor)^2×0.45 by measuring the tumors in two perpendicular axes with a tissue caliper. Once the tumor volume reached 2,000 mm^3, the mice were sacrificed and subsequently recorded as dead. […] On day 12, mice were intraperitoneally injected with D-luciferin potassium salt (200 μL, 10 mg/mL, Thermo Fisher Scientific), followed by anesthesia with 2% isoflurane in order to perform in vivo bioluminescence imaging. An IVIS-200 Perkin Elmer system with its integrated acquisition and analysis software (Living Image V. 2.50) was performed to quantify the said signals. On day 32, an optical microscope was used to examine the number of pulmonary metastatic nodules.

[1] = Secondary conformation by circular dichroism (BeStSel fit); format: physicochemical; details: CD, 0.1 mg mL^−1 in DI water, neutral condition
Protocol: The BeStSel software (Beta Structure Selection) was used to compute the percentages of peptide chain conformation by fitting the CD spectra.
The MALDI-TOF MS spectrum of the side-chain protected peptide was recorded in the reflection mode of a MALDI-TOF spectrometer (Bruker Autoflex III TOF/TOF). […] For CD measurements, the concentration of peptide samples in DI water was 0.1 mg mL^−1. SAXS patterns of peptide solutions were recorded on a Bruker NanoSTAR U diffractometer with controlled voltage 45 kV and current 650 μA at room temperature under 4×10^−1 torr. The critical aggregation concentration (cac) of peptides was determined by measuring the pyrene emission spectra of various peptide solutions with an integration time of 1.0 sec using a Hitachi FL-4500 fluorescence spectrophotometer.

A549 cells = assay: Membrane staining with 1,1′-diethyl-4,4′-carbocyanine iodide; format: cell-based; details: A549, 4 μM, 6 h
H1299 cells [2] = assay: as above; format: cell-based; details: H1299, 4 μM, 6 h
E-cadherin = assay: Immunoblot analysis in H1299 cells; format: cell-based; details: H1299, 24 h
Protocol: (§1) In the present disclosure, E-cadherin is one of the crucial molecules in cell-cell adhesion, participating in cancer progression.
(§2) The immunoblot analysis was conducted by treating H1299 cells with copolypeptides (4 μM) in the presence or absence of cisplatin (5 μM) for 24 h, followed by extraction using RIPA Lysis and Extraction Buffer (Thermo Fisher Scientific) and then separation by using 8% SDS-PAGE. Upon transferring onto NC membranes (0.22 μm) blocked in 5% fat-free dry milk, the proteins were incubated with primary antibodies against E-cadherin, caspase-3, poly(ADP-ribose) polymerase (PARP), and β-actin, followed by incubation with their appropriate secondary antibodies. An Immobilon Western Chemiluminescent HRP Substrate kit (Merck) was used to form visualized protein bands and the intensities of the protein bands were quantified using the Image J software (Image Processing and Analysis in Java) by normalizing to that of β-actin.

caspase-3, and PARP = assay: Immunoblot analysis in H1299 cells; format: cell-based; details: H1299, 24 h
Protocol: as §1, §2

H1299 cells [3] = assay: Cytotoxicity, CCK-8 assay; format: cell-based; details: H1299, linear copolypeptides, 0 to 100 μM
Protocol: The cytotoxicity of copolypeptides at various concentrations or in combination with cisplatin (5 μM) was evaluated by incubating with A549, BEAS-2B, and H1299 cells (5×10^3 cells/well) in 96-well plates for 24 h using 10% FBS DMEM as the medium. After adding CCK-8 reagent (Targetmol) dissolved in serum-free medium, the well plates were incubated at 37° C. for 1 h. Upon transferring the medium to fresh 96-well plates, the absorbance of each well was measured at 450 nm using a Microplate Spectrophotometer (BioTek). The percentages of viable cells were calculated by the below equation:
Cell viability (%)=(Absorbancetest cell−Absorbanceblank)/(Absorbancecontrol cell−Absorbanceblank)×100

[4] = test system: H1299 (p53-deficient) cells; assay: Transfection efficiency of copolypeptides/pDNA polyplexes; format: cell-based; details: H1299, relative to lipofectamine 2000
Excerpt: LysmBnCys5 copolypeptides (m=5, 10, and 15, i.e., SEQ ID NOs: 2, 5, and 3)) efficiently carried p53 gene (pcDNA3 p53 WT plasmid) into H1299 (p53-deficient) cells and enhanced chemotherapeutic treatment. […] Improved transfection efficiency was mainly attributed to optimal polyplex stability, determined by peptide charge density and rigidity. […] Moreover, treatment with both LysmBnCys5/p53 gene vector and cisplatin extended the survival rates of tumor-bearing mice.
FIGS. 22A-22B are results showing the p53 gene transfection efficiencies of various star-shaped copolypeptides to H1299 cells.
5.0 μM copolypeptides or 4.0 μL lipofectamine 2000 (Thermo Fisher Scientific) were mixed with 4.0 μg of plasmid DNA (pEGFP-C, Clontech) in 1 mL serum-free DMEM and left standing for 20 min. After cell concentration reached 2×10^5 cells/well in 6-well plates, the culture medium was replaced with 1 mL copolypeptides/DNA complexes (polyplexes) and incubated for 6 h. […] Green fluorescent protein (GFP) expression of transfected cells was examined under an inverted fluorescence microscope (IX71, Olympus). Quantitative evaluation of the transfection efficiency was also conducted using a flow cytometer (BD Biosciences). […] Transfection efficiency was then calculated as the percentage of cells expressing GFP, with the fluorescence of 2×10^4 cells evaluated by flow cytometry.

N.N.[Cl][Pt][Cl] [cisplatin]
body weight loss (LL2 tumor): weight loss

LLLLLCCCCC [Lys5Cys5]
Random coil (%) [1]: 32.0% | ß-sheet/turn (%) [1]: 68.0% | membrane staining with 1,1′-diethyl-4,4′-carbocyanine iodide (A549 cells): not | membrane staining with 1,1′-diethyl-4,4′-carbocyanine iodide (H1299 cells [2]): not | E-cadherin expression (E-cadherin): reduced E-cadherin expression | caspase-3 and PARP expression (caspase-3, and PARP): triggered caspase-3, and PARP expression significantly

Lys10BnCys5: poly-L-lysine-block-poly-S-benzyl-L-cysteine, 10 and 5 residues
cell viability (H1299 cells [3]): cell viability decreased with increasing concentration

Lys15BnCys5: poly-L-lysine-block-poly-S-benzyl-L-cysteine, 15 and 5 residues
cell viability (H1299 cells [3]): cell viability decreased with increasing concentration | transfection efficiency [4]: almost equivalent to that using lipofectamine 2000

poly-L-guanidinylated lysine [PLGL15]
cell viability (H1299 cells [3]): cell viability decreased with increasing concentration

poly-L-lysine (LLLLLLLLLLLLLLL) [PLL15, poly-L-lysine, 15 residues]
cell viability (H1299 cells [3]): cell viability decreased with increasing concentration
